The text below walks through data of US9451775B2, “Heterocyclic compounds as pesticides” (Bayer Intellectual Property GmbH, priority 2008, dated 2016).

A short description of data set [1]: logP determination by HPLC (formic acid method). The data set is classed as physicochemical. The note with it: reversed-phase HPLC column (C18), read-out: logP (HCOOH). How it is done:
1) Description of the method for determining the logP values (formic acid method)
The logP values given in the table were determined in accordance with EEC Directive 79/831 Annex V.A8 by HPLC (High Performance Liquid Chromatography) on a reversed-phase column (C18). Temperature: 55° C.
Mobile phases for the determination in the acidic range (pH 3.4):
Mobile phase A: Acetonitrile+1 ml of formic acid/litre. Mobile phase B: water+0.9 ml of formic acid/litre.
Gradient: from 10% mobile phase A/90% mobile phase B to 95% mobile phase A/5% mobile phase B in 4.25 min.
Calibration was carried out using unbranched alkan-2-ones (having 3 to 16 carbon atoms) with known logP values (determination of the logP values by the retention times using linear interpolation between two successive alkanones). The lambda max values were determined in the maxima of the chromatographic signals using the UV spectra from 200 nm to 400 nm.

For data set [2], the system named is green peach aphid (Myzus persicae). Description: Myzus test (spray treatment). The data set is classed as in vivo. The note with it: foliar, read-out: activity (effect in %, aphids killed). How it is done: Myzus Test (Spray Treatment)
• Solvents: 78.0 parts by weight of acetone • 1.5 parts by weight of dimethylformamide • Emulsifier: 0.5 part by weight of alkylaryl polyglycol ether
To produce a suitable preparation of active compound, 1 part by weight of active compound is mixed with the stated amounts of solvents and emulsifier, and the concentrate is diluted with emulsifier-containing water to the desired concentration.
Discs of leaves of Chinese cabbage (Brassica pekinensis) which are heavily infested by all stages of the green peach aphid (Myzus persicae) are sprayed with an active compound preparation of the desired concentration.
After the desired period of time, the effect in % is determined. 100% means that all aphids have been killed; 0% means that none of the aphids have been killed.

The mark [3] stands for this setting: pH 3.4, HPLC on reversed-phase column (C18), acidic range (pH 3.4), 55° C.
The mark [4] stands for this setting: application rate of 500 g/ha, sprayed Chinese cabbage leaf discs.
The mark [5] stands for this setting: pH 3.4, values printed in the text of the preparation examples, formic acid method.

Like-named read-outs stand apart in the source and are kept apart here.

As to `Cc1nc(-c2cccnc2)sc1-n1ccc(C(F)(F)F)n1` [Ex. No. 14], the chromatographic logP in data set [1] (setting [3]) stood at 2.63. Besides, the pest or weed control at 500 g/ha in data set [2] (setting [4]) was at least 80%.

With `Cc1nc(-c2cccnc2)sc1-n1ccc(C(F)(F)C(F)(F)F)n1` [Ex. No. 140], the chromatographic logP in data set [1] (setting [3]) is 3.31. Further, in data set [2] (application rate of 100 g/ha, sprayed Chinese cabbage leaf discs), the pest or weed control at 100 g/ha is at least 80%.

As for `Cc1nc(-c2cccnc2)sc1-c1ccnc(-c2ncccn2)n1` [Preparation Example 1, 4-(4-Methyl-2-pyridin-3-ylthiazol-5-yl)-[2,2′]bipyrimidinyl], the chromatographic logP in data set [1] (setting [3]) and in data set [1] (setting [5]) was 1.17 throughout. In addition, in data set [2] (in Brassica rapa), the pest or weed control at 500 g/ha was at least 80%.

As to `Cc1nc(-c2cccnc2)sc1-c1ccn(-c2cnccn2)n1` [Preparation Example 2, 2-[3-(4-Methyl-2-pyridin-3-ylthiazol-5-yl)pyrazol-1-yl]pyrazine], the chromatographic logP in data set [1] (setting [3]) and in data set [1] (setting [5]) was 2.3 in each case. Also, the pest or weed control at 500 g/ha in data set [2] (setting [4]) is at least 80%.

In the case of `Cc1nc(-c2cccnc2)sc1-n1ccc(-c2ncccn2)n1` [Preparation Example 3, 2-[1-(4-Methyl-2-pyridin-3-ylthiazol-5-yl)-1H-pyrazol-3-yl]pyrimidine], the chromatographic logP in data set [1] (setting [3]) and in data set [1] (setting [5]) was 1.48 throughout. Also, the pest or weed control at 500 g/ha in data set [2] (setting [4]) was at least 80%.

In the case of `Cc1nc(-c2cccnc2)sc1-c1cccc(-c2nccnn2)n1` [Preparation Example 4, 3-[6-(4-Methyl-2-pyridin-3-ylthiazol-5-yl)pyridin-2-yl]-[1,2,4]triazine], the chromatographic logP in data set [1] (setting [3]) and in data set [1] (setting [5]) was 1.58 throughout. In addition, in data set [2] (in Brassica rapa), the pest or weed control at 500 g/ha is at least 80%.

Consider `c1cnc(-c2cccc(-c3cnc(-c4cccnc4)s3)n2)nc1` [Preparation Example 5, 2-[6-(2-Pyridin-3-ylthiazol-5-yl)pyridin-2-yl]pyrimidine], for which the chromatographic logP in data set [1] (setting [3]) and in data set [1] (setting [5]) was 1.53 each time. Also, the pest or weed control at 500 g/ha in data set [2] (setting [4]) was at least 80%.

Regarding `Cc1nc(-c2cccnc2)sc1-c1cccc(-c2ncccn2)n1` [Preparation Example 6, 2-[6-(4-Methyl-2-pyridin-3-ylthiazol-5-yl)pyridin-2-yl]pyrimidine], the chromatographic logP in data set [1] (setting [3]) is 1.73; in data set [1] (setting [5]) it was 1.75. The pest or weed control at 500 g/ha in data set [2] (in Brassica rapa) is at least 80%.

Consider `Cc1nc(-c2cccnc2)sc1C1=NN(c2ncccn2)CCO1` [Preparation Example 7, 2-(4-Methyl-2-pyridin-3-ylthiazol-5-yl)-4-pyrimidin-2-yl-5,6-dihydro-4H-[1,3,4]oxadiazine], for which the chromatographic logP in data set [1] (setting [3]) and in data set [1] (setting [5]) was 1.56 in each case. The pest or weed control at 500 g/ha in data set [2] (setting [4]) was at least 80%.

For `Cc1nc(-c2cccnc2)sc1-c1cccc(C2=NOCCO2)n1` [Preparation Example 8, 3-[6-(4-Methyl-2-pyridin-3-ylthiazol-5-yl)pyridin-2-yl]-5,6-dihydro-[1,4,2]dioxazine], the results for the chromatographic logP in data set [1] (setting [3]) and in data set [1] (setting [5]) were 1.82 and 1.81, respectively. The pest or weed control at 500 g/ha in data set [2] (in Brassica rapa) was at least 80%.

For `c1cnc(-c2nccc(-c3nnc(-c4cccnc4)s3)n2)nc1` [Preparation Example 9, 4-(5-Pyridin-3-yl-[1,3,4]thiadiazol-2-yl)-[2,2′]bipyrimidinyl], the chromatographic logP in data set [1] (setting [3]) and in data set [1] (setting [5]) was 1.07 throughout. The pest or weed control at 500 g/ha in data set [2] (in Brassica rapa) was at least 80%.

Consider `c1cnc(-c2cccc(-c3nnc(-c4cccnc4)s3)n2)nc1` [Preparation Example 10, 2-[6-(5-Pyridin-3-yl-[1,3,4]thiadiazol-2-yl)pyridin-2-yl]pyrimidine], for which the chromatographic logP in data set [1] (setting [3]) and in data set [1] (setting [5]) was 1.54 each time. Besides, in data set [2] (setting [4]), the pest or weed control at 500 g/ha is at least 80%.

Take `Cn1nc(-c2cccnc2)cc1-c1ccn(-c2ncccn2)n1` [Preparation Example 11]: the chromatographic logP in data set [1] (setting [3]) and in data set [1] (setting [5]) was 1 each time. Further, in data set [2] (setting [4]), the pest or weed control at 500 g/ha was at least 80%.

On to `Cn1nc(-c2cccnc2)cc1-c1ccnc(-c2ncccn2)n1` [Preparation Example 12], for which the chromatographic logP in data set [1] (setting [3]) and in data set [1] (setting [5]) was 0.65 each time. In addition, in data set [2] (in Brassica rapa), the pest or weed control at 500 g/ha is at least 80%.

In the case of `Clc1ccc(-c2cnc(-c3cccnc3)s2)cc1` [compound 13], in data set [1] (setting [3]), the chromatographic logP is 3.23. Besides, the pest or weed control at 500 g/ha in data set [2] (setting [4]) was at least 80%.

In the case of `Cc1nc(-c2cccnc2)sc1-n1ccc(-c2ccccn2)n1` [compound 15], the chromatographic logP in data set [1] (setting [3]) came to 1.67. Also, the pest or weed control at 500 g/ha in data set [2] (setting [4]) is at least 80%.

Consider `Cc1nc(-c2cccnc2)sc1C1=NCC(c2ccccn2)O1` (stereo not shown) [compound 16], for which the chromatographic logP in data set [1] (setting [3]) was determined as 1.72. The pest or weed control at 500 g/ha in data set [2] (setting [4]) was at least 80%.

Take `Cc1nc(-c2cccnc2)sc1-c1cccc(C(F)(F)F)c1` [compound 17]: in data set [1] (setting [3]), the chromatographic logP came to 3.55. Besides, the pest or weed control at 500 g/ha in data set [2] (setting [4]) is at least 80%.

Turning to `Cc1nc(-c2cccnc2)sc1-c1cccnc1` [compound 18], the chromatographic logP in data set [1] (setting [3]) was found to be 1.1. In data set [2] (setting [4]), the pest or weed control at 500 g/ha was at least 80%.

With `COC(OC)c1ccn(-c2sc(-c3cccnc3)nc2C)n1` [compound 19], in data set [1] (setting [3]), the chromatographic logP was found to be 1.77. For the same molecule, in data set [2] (setting [4]), the pest or weed control at 500 g/ha was at least 80%.

`Cc1nc(-c2cccnc2)sc1-n1ccc(Br)n1` [compound 20]: the chromatographic logP in data set [1] (setting [3]) was 2.28. Moreover, in data set [2] (setting [4]), the pest or weed control at 500 g/ha is at least 80%.

As for `Cc1nc(-c2cccnc2)sc1-c1cccc(C(F)(F)F)n1` [compound 21], the chromatographic logP in data set [1] (setting [3]) is 3.01. Further, the pest or weed control at 500 g/ha in data set [2] (setting [4]) was at least 80%.

On to `Cc1nc(-c2cccnc2)sc1-c1ccn(-c2ncccn2)n1` [compound 22], for which the chromatographic logP in data set [1] (setting [3]) is 1.74. In data set [2] (setting [4]), the pest or weed control at 500 g/ha is at least 80%.

As to `Cc1nc(-c2cccnc2)sc1-c1ccn(CC(F)(F)F)n1` [compound 23], in data set [1] (setting [3]), the chromatographic logP came to 2.2. In addition, in data set [2] (setting [4]), the pest or weed control at 500 g/ha was at least 80%.

Regarding `Cc1nc(-c2cccnc2)sc1-c1ccn(-c2ccccn2)n1` [compound 24], the chromatographic logP in data set [1] (setting [3]) was determined as 2.94. In data set [2] (setting [4]), the pest or weed control at 500 g/ha was at least 80%.

As to `Cc1nc(-c2cccnc2)sc1-c1cccc(C2OCCO2)c1` [compound 25], in data set [1] (setting [3]), the chromatographic logP came out at 2.39. Besides, in data set [2] (setting [4]), the pest or weed control at 500 g/ha was at least 80%.

Consider `Cc1nc(-c2cccnc2)sc1-c1ccnn1-c1ncccn1` [compound 26], for which the chromatographic logP in data set [1] (setting [3]) was 1.47. Further, in data set [2] (setting [4]), the pest or weed control at 500 g/ha is at least 80%.

Take `Cc1nc(-c2cccnc2)sc1-n1ccc(-c2ccccc2)n1` [compound 28]: the chromatographic logP in data set [1] (setting [3]) stood at 3.08. In data set [2] (setting [4]), the pest or weed control at 500 g/ha was at least 80%.

As to `Cc1nc(-c2cccnc2)sc1-c1ccnc(-c2ccccn2)n1` [compound 29], the chromatographic logP in data set [1] (setting [3]) was found to be 1.47. Moreover, the pest or weed control at 500 g/ha in data set [2] (setting [4]) is at least 80%.

Turning to `Cc1nc(-c2sc(-c3cccnc3)nc2C)cs1` [compound 30], the chromatographic logP in data set [1] (setting [3]) came out at 2. Besides, the pest or weed control at 500 g/ha in data set [2] (setting [4]) was at least 80%.

With `Cc1nc(-c2cccnc2)sc1-c1cccc(Cl)n1` [compound 31], the chromatographic logP in data set [1] (setting [3]) was 2.66. Moreover, the pest or weed control at 500 g/ha in data set [2] (setting [4]) is at least 80%.

In the case of `Cc1nc(-c2cccnc2)sc1-c1cccc(=O)[nH]1` [compound 32], the chromatographic logP in data set [1] (setting [3]) is 1.23. In addition, the pest or weed control at 500 g/ha in data set [2] (setting [4]) is at least 80%.

On to `Cc1nc(-c2cccnc2)sc1-c1nc(C(=O)N(C)CC(F)(F)F)cs1` [compound 238], for which, in data set [1] (setting [3]), the chromatographic logP was 2.53.

Turning to `O=C(NCC(F)(F)F)c1cccc(-c2nnc(-c3cccnc3)s2)n1` [compound 241], the chromatographic logP in data set [1] (setting [3]) was found to be 2.07.

As to `Cc1nc(-c2cccnc2)sc1-c1nc(C(=O)N2CCCO2)cs1` [compound 242], the chromatographic logP in data set [1] (setting [3]) came out at 1.61.

With `Cc1nc(-c2cccnc2)sc1-c1nc(C(=O)N(C)C)cs1` [compound 243], the chromatographic logP in data set [1] (setting [3]) stood at 1.67.

For `COC(=O)c1cccc(-c2cnc(-c3cccnc3)s2)n1` [compound 244], in data set [1] (setting [3]), the chromatographic logP came to 1.77.

Take `CCOc1ccc(-c2cc(-c3cccnc3)nn2C)cn1` [compound 245]: the chromatographic logP in data set [1] (setting [3]) is 1.46.

Take `COc1ccc(-c2cc(-c3cccnc3)nn2C)cn1` [compound 246]: the chromatographic logP in data set [1] (setting [3]) was found to be 1.14.

As for `Cc1nc(-c2cccnc2)sc1-c1nc(C(=O)N2CCOCC2)cs1` [compound 247], the chromatographic logP in data set [1] (setting [3]) turned out to be 1.66.

For `CCN(C)C(=O)c1cccc(-c2nnc(-c3cccnc3)s2)n1` [compound 248], in data set [1] (setting [3]), the chromatographic logP is 1.54.

With `CON(C)C(=O)c1cccc(-c2nnc(-c3cccnc3)s2)n1` [compound 249], the chromatographic logP in data set [1] (setting [3]) is 1.29.

Take `O=C(c1cccc(-c2nnc(-c3cccnc3)s2)n1)N1CCOCC1` [compound 250]: the chromatographic logP in data set [1] (setting [3]) was 1.29.

Turning to `Cn1nc(-c2cccnc2)cc1-c1cc[nH]n1` [drawing 82], the chromatographic logP in data set [1] (setting [5]) came to 0.42.
